Reference: paper PMC6368403, “Identification of a bilirubin receptor that may mediate a component of cholestatic itch” (eLife, 2019)
Several values for one entry are separate records, joined by “and”; a condition that tells them apart may be missing. Equal values may be shown once.

Columns and labels:
DRG neurons = assay: Ca2+ imaging of cultured DRG neurons; type: cell-based, mouse
Procedure: All cultured cells were maintained in DMEM supplemented with 10% FBS and 1% Penicillin/Streptomycin at 37°C, 5% CO2. […] Cells were imaged in calcium imaging buffer (CIB; 10 mM HEPES, 1.2 mM NaHCO3, 130 mM NaCl, 3 mM KCl, 2.5 mM CaCl2, 0.6 mM MgCl2, 20 mM glucose, and 20 mM sucrose at pH 7.4 and 290–300 mOsm). To monitor changes in intracellular [Ca^2+] ([Ca^2+]i), cells were loaded with either Fura 2-AM (HEK293 cells) or Fluo 4-AM (DRG neurons and mast cells) for 30 min in the dark at 37°C in CIB just prior to imaging. With Fura 2-AM, emission at 510 nm was monitored from excitation at both 340 nm and 380 nm. With Fluo 4-AM, emission at 520 nm was monitored from excitation at 488 nm. Cells were identified as responding if the intracellular [Ca^2+] rose by either 50% compared to baseline or 50% compared to the [Ca^2+]i change assayed during addition of 50 mM KCl (neurons only). Damaged, detached, high-baseline, and motion-activated cells were excluded from analysis.
DRGs were incubated with Fluo-4 AM 24 hr after dissociation (native genotype) or 48 hr after dissociation (virally transduced). Unless otherwise noted, cells were imaged for 20 seconds to establish a baseline before compounds were added. After 30 s, a 2 min wash was applied before addition of another substances. At the end of every imaging trial, 50 mM KCl was added as a positive control. […] For ruthenium red inhibitor experiments, neurons were incubated with 10 µM ruthenium red for 5 min prior to imaging. Percentage activated was determined as earlier described.
DRG neurons from all spinal levels were collected in cold DH10 media (90% Dulbecco’s modified Eagle’s medium (DMEM)/F-12, 10% FBS, penicillin (100 U/mL), and streptomycin (100 μg/mL)). DRGs were digested with a dispase (5 mg/ml)/collagenase type I (1 mg/ml) enzyme mixture at 37°C for 45 min. After trituration, cells were spun at 300 g and re-suspended in DH10 before being plated on glass coverslips coated with poly-D-lysine (0.5 mg/ml) and laminin (10 μg/ml, Invitrogen). DRGs were cultured with DH10 supplemented with 50 ng/mL NGF at 37°C.

mice = assay: Cheek injection model: scratching bouts and wiping; type: in vivo, mouse; conditions: injected into cheek: 1.3 mM deoxycholic acid, 4 mM LPA
Procedure: All applicable behavioral tests were performed and analysed with the experimenter blind to genotype. […] There were no significant differences in itch between male and female mice. […] On the day before the experiment, animals were placed in the test chamber for 30 min before being subjected to a series of three mock injections with 5 min break periods in between. On the day of the experiment, animals were first allowed to acclimatize to the test chamber for 10 min before injection. […] A bout of scratching was defined as a continuous scratching movement with either hindpaw directed at the area of the injection site. In the cheek injection model, a wipe was defined as a single forepaw stroking the site of the injection. Use of both forepaws on the face or cheek was considered as grooming behavior. […] For H1R block, 30 mg/kg of cetirizine HCl (pH 7.4) was given intraperitoneally thirty minutes prior to injection of bilirubin. Licking behavior was quantified in seconds and identified as the licking of the toes or footpad of the hind paw site of injection that was neither preceded nor followed by licking of any other portion of the body.

MRGPRC11 [1] = target: T1, MRGPRC11 (Mus musculus, UniProt Q8CIP3); assay: Ca2+ imaging and concentration-Ca2+ response in HEK293 cells expressing MRGPRC11; type: cell-based; conditions: three replicates, Fig 2-N
T1 construct: expressed in transfected cells
T1 sequence (Q8CIP3 1-322): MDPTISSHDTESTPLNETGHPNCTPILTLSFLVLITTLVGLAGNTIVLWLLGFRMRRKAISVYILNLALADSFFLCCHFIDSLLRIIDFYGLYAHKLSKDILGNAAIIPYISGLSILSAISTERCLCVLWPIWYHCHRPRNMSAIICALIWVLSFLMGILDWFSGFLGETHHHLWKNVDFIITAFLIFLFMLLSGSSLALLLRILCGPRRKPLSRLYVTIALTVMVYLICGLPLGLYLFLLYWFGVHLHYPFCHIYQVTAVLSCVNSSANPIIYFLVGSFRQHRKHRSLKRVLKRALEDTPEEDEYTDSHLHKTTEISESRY
Procedure: All cultured cells were maintained in DMEM supplemented with 10% FBS and 1% Penicillin/Streptomycin at 37°C, 5% CO2. All data included were generated from cells tested for mycoplasma and found to be negative. Cells were imaged in calcium imaging buffer (CIB; 10 mM HEPES, 1.2 mM NaHCO3, 130 mM NaCl, 3 mM KCl, 2.5 mM CaCl2, 0.6 mM MgCl2, 20 mM glucose, and 20 mM sucrose at pH 7.4 and 290–300 mOsm). To monitor changes in intracellular [Ca^2+] ([Ca^2+]i), cells were loaded with either Fura 2-AM (HEK293 cells) or Fluo 4-AM (DRG neurons and mast cells) for 30 min in the dark at 37°C in CIB just prior to imaging. With Fura 2-AM, emission at 510 nm was monitored from excitation at both 340 nm and 380 nm. With Fluo 4-AM, emission at 520 nm was monitored from excitation at 488 nm. Cells were identified as responding if the intracellular [Ca^2+] rose by either 50% compared to baseline or 50% compared to the [Ca^2+]i change assayed during addition of 50 mM KCl (neurons only). Damaged, detached, high-baseline, and motion-activated cells were excluded from analysis.
In initial screens, HEK293 cells stably expressing the murine G-protein alpha-subunit Gα15, a unique Gα protein that non-selectively couples a large variety of GPCRs to phospholipase C ^30, were plated on poly-D-lysine-coated coverslips and transiently transfected with constructs encoding the MRGRPR of interest. 12–24 hr later, cells were loaded with the Fura 2-AM. Unless otherwise specified, compounds were perfused into the imaging chamber for approximately thirty seconds after a baseline period was established. Response was then monitored at 5 s intervals for an additional 60 s.
HEK293 cells stably expressing either MRGPRA1, MRGPRX4, and MRGRPC11 were seeded in poly-D-lysine-coated 96-well plates at 10,000 cells/well. Cells were loaded with Fura 2–AM, washed twice, and maintained in CIB. Haem metabolites were freshly dissolved in DMSO in dim light and then diluted into a buffer comprised of 20 mM Tris and 150 mM NaCl at pH 8.8. Potential changes in pH were evaluated prior to each experiment. EC50 values were determined from dose-responses performed in triplicate, repeated 2–4 times. To determine potential antagonism by QWF against bilirubin, cells were treated with varying doses of QWF for 1 min in CIB prior to application of agonist.
HEK293 stable cell lines expressing GFP-tagged MRGPRA3, MRGPRC11, MRGPRD, MRGPRX1, and MRGPRX2 were generated in previously described reports ([Liu et al., 2009]; [Liu et al., 2012]; [McNeil et al., 2015]). Briefly, plasmids containing the receptor of interest were transfected into HEK cells using Lipofectamine 3000. After 3 days, cells were then selected using 0.5 mg/mL G418. After 3 weeks, monoclonal colonies were established and each the highest expressing clones were identified. For this study, Mrgpra1 and MRGPRX4 were inserted into pEGFP-N1 and transfected into HEK293 cells. MRGPR-positive cells were selected using 0.5 mg/mL G418 for three weeks, after which GFP-positive cells were sorted by FACS and monoclonally expanded. Two lines expressing similar levels of MRGPRA1 and MRGPRX4, as measured by GFP fluorescence, were selected for study.

MRGPRC11 [2] = target: T1, MRGPRC11; assay: Microscale thermophoresis binding to MRGPRC11; conditions: mean of n=3, Fig 2-O
Procedure: Binding isotherms for MRGPRA1, MRGPRX4, and MRGRPC11 towards various ligands were determined by microscale thermophoresis with the NanoTemper monolith NT.115 instrument ([Duhr and Braun, 2006]). Ligands were pre-incubated with 10 µM of the GFP-tagged receptor of interest for 5 min at room temperature in binding buffer (20 mM Tris and 150 mM NaCl at pH 8.8). Receptors were crudely purified as a membrane fraction from cells stably expressing the receptor ([Vasavda et al., 2017]). Haem metabolites were freshly dissolved in 0.1 M NaOH in dim light and then diluted into assay buffer. Lyophilized BAM8-22 was dissolved in binding buffer. The pH of each ligand was evaluated prior to incubation with a receptor. Samples were loaded into NT.115 Hydrophobic-Treated Capillaries from NanoTemper. Microscale thermophoretic experiments were executed using 20% LED power and 15% MST power. KDs were calculated using the law of mass action with data from three independent experiments. Binding between bilirubin and receptors was evaluated purely thermophoretically, whereas binding between BAM8-22 and MRGPRC11 was evaluated by T-Jump. Samples with dramatic deviations in initial fluorescence were excluded.

N.N.N.N.N.N.N.N.N.N.N.N.N.N.[Cl-].[Cl-].[Cl-].[Cl-].[Cl-].[Cl-].[O-2].[O-2].[Ru+3].[Ru+3].[Ru+4] [ruthenium red, reference compound]
Effect on activation of sensory neurons by bilirubin (DRG neurons; 10 µM ruthenium red, 50 µM bilirubin): prevented bilirubin from activating sensory neurons | Percent activated neurons by 50 µM bilirubin (DRG neurons; WT neurons incubated with 10 µM ruthenium red (Fig 4G)): 0.73%

C[C@H](CCC(=O)O)[C@H]1CC[C@H]2[C@@H]3CC[C@@H]4C[C@H](O)CC[C@]4(C)[C@H]3C[C@H](O)[C@]12C [deoxycholic acid, reference compound]
Scratching in WT versus Mrgpr-cluster KO animals (mice): equivalent degrees of scratching in WT and Mrgpr-cluster KO animals

BAM8-22 [reference compound]
Ca2+ response (concentration-Ca2+ response curve), replicate values (MRGPRC11 [1]; [Ligand] 1.95313e-7 M): 1.675 (2×) and 1.799 | Ca2+ response (concentration-Ca2+ response curve), replicate values (MRGPRC11 [1]; [Ligand] 3.90625e-7 M): 1.633 and 1.596 and 1.826 | Ca2+ response (concentration-Ca2+ response curve), replicate values (MRGPRC11 [1]; [Ligand] 7.8125e-7 M): 1.6619 and 1.688 and 1.837 | Ca2+ response (concentration-Ca2+ response curve), replicate values (MRGPRC11 [1]; [Ligand] 1.5625e-6 M): 1.91 and 1.851 and 1.839 | Ca2+ response (concentration-Ca2+ response curve), replicate values (MRGPRC11 [1]; [Ligand] 3.125e-6 M): 2.508 and 1.957 and 1.844 | Ca2+ response (concentration-Ca2+ response curve), replicate values (MRGPRC11 [1]; [Ligand] 6.25e-6 M): 2.578 and 3.436 and 2.313 | Ca2+ response (concentration-Ca2+ response curve), replicate values (MRGPRC11 [1]; [Ligand] 1.25e-5 M): 4.631 and 2.839 and 3.888 | Ca2+ response (concentration-Ca2+ response curve), replicate values (MRGPRC11 [1]; [Ligand] 2.5e-5 M): 3.332 and 3.664 and 3.933 | microscale thermophoresis response (binding isotherm), mean (MRGPRC11 [2]; [Ligand] 4.88e-8 M): 0.2221 | microscale thermophoresis response (binding isotherm), mean (MRGPRC11 [2]; [Ligand] 9.77e-8 M): 0.7996 | microscale thermophoresis response (binding isotherm), mean (MRGPRC11 [2]; [Ligand] 1.953e-7 M): 0.1618 | microscale thermophoresis response (binding isotherm), mean (MRGPRC11 [2]; [Ligand] 3.906e-7 M): -0.3098 | microscale thermophoresis response (binding isotherm), mean (MRGPRC11 [2]; [Ligand] 7.813e-7 M): -0.7916 | microscale thermophoresis response (binding isotherm), mean (MRGPRC11 [2]; [Ligand] 1.5625e-6 M): -0.6624 | microscale thermophoresis response (binding isotherm), mean (MRGPRC11 [2]; [Ligand] 3.125e-6 M): -0.9001 | microscale thermophoresis response (binding isotherm), mean (MRGPRC11 [2]; [Ligand] 6.25e-6 M): -0.5948 | microscale thermophoresis response (binding isotherm), mean (MRGPRC11 [2]; [Ligand] 1.25e-5 M): -2.488 | microscale thermophoresis response (binding isotherm), mean (MRGPRC11 [2]; [Ligand] 2.5e-5 M): -2.079 | microscale thermophoresis response (binding isotherm), mean (MRGPRC11 [2]; [Ligand] 5e-5 M): -2.779 | microscale thermophoresis response (binding isotherm), mean (MRGPRC11 [2]; [Ligand] 0.0001 M): -3.797

lysophosphatidic acid [LPA, reference compound]
Scratching in WT versus Mrgpr-cluster KO animals (mice): equivalent degrees of scratching in WT and Mrgpr-cluster KO animals
